Laboratory results as given in PubChem BioAssay (NCI).
“And” between values parts separate entries of the source, which are not always exact repeats. Equal values may be shown once.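 How tested: cells in 96-well plates exposed to compound for 48 hours at five concentrations. Abbreviation: GI50, concentration required for 50% inhibition of growth. At the TGI there is no net growth.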

Legend:
Assay in all cases: NCI tumour cell line growth inhibition, 48 h
[1] = tested on: NCI-H23 lung
[2] = tested on: UO-31 renal
[3] = tested on: HT29 colon
[4] = tested on: U251 CNS
[5] = tested on: COLO 205 colon
[6] = tested on: T-47D breast
[7] = tested on: OVCAR-4 ovarian
[8] = tested on: NCI-H226 lung
[9] = tested on: HL-60(TB) leukemia
[10] = tested on: SK-OV-3 ovarian

SMILES | TGI [1] | TGI [2] | TGI [3] | TGI [4] | TGI [5] | TGI [6] | TGI [7] [µM] | TGI [8] [µM] | TGI [9] [µM] | TGI [10] [µM] | GI50 [1] | GI50 [2] | GI50 [3] | GI50 [4] | GI50 [5] | GI50 [6] | GI50 [7] | GI50 [8] | GI50 [9] | GI50 [10]
O=S(=O)(O)SCCNCCCCCC1CCCCC1 | 27.5 µM | 29.8 µM | 19.1 µM | 11.7 µM | 30.3 µM | 35.7 µM | 32.3 | 30.6 | > 100 | 31.2 |  |  |  |  |  |  |  |  |  | 
O=C(NOCCO)c1cc(CN2OCCCC2=O)c(F)c(F)c1Nc1ccc(I)cc1F | 26.5 µM and > 10 µM | 13.1 µM and > 10 µM | > 42.7 µM | 23.8 µM and > 10 µM | 14.9 µM and > 10 µM | > 100 µM | > 90.4 | > 100 | > 57 | > 85.8 | < 0.0222 µM and 0.0545 µM | 0.17 µM and 0.164 µM | < 0.01 µM and 0.0029 µM | 0.362 µM and 0.479 µM | < 0.01 µM and 0.00219 µM | 29.4 µM and > 10 µM | 6.13 µM and > 7.82 µM | 1.89 µM and 9.97 µM | < 0.01 µM and 0.00194 µM | 22.6 µM and > 2.5 µM
CC(N1CCOCC1)C(O)(c1ccccc1)c1ccccn1 (configuration not stated) | > 100 µM | > 100 µM | > 100 µM | > 100 µM | > 100 µM | > 100 µM | > 100 | > 100 | > 100 | > 100 |  |  |  |  |  |  |  |  |  | 
O=Cc1ccc(N2CCN(c3ccc(C=O)cc3)CC2)cc1 | > 100 µM | > 100 µM | > 100 µM | > 100 µM | > 100 µM | 32.6 µM | > 100 | 4.12 | > 100 | > 100 | > 100 µM | > 100 µM | > 100 µM | > 100 µM | > 100 µM | 3.35 µM | 5.68 µM | 1.65 µM | > 100 µM | > 100 µM
O=C(C=C=Nc1ccccc1)C(=O)N=C=Cc1ccccc1 | 19.5 µM | 3.82 µM | 4.74 µM | 17.3 µM | 3.87 µM | 3.94 µM | 6.41 | 59.8 | 6.98 | 68 | 4.55 µM | 1.63 µM | 1.89 µM | 5.27 µM | 1.89 µM | 1.62 µM | 2.15 µM | 16.4 µM | 1.7 µM | 20.3 µM
CC(/C=N/N=C(N)N)=N\N=C(N)N | > 61.8 µM and 171 µM | 552 µM | > 58 µM and 1620 µM | 403 µM | 33.1 µM and 21.5 µM | 31 µM and 23.4 µM | 95.3 | 459 | 578 | 546 | 31.1 µM | 11 µM | 18.6 µM and 17.1 µM | 47.7 µM | 4.26 µM | 5.02 µM | 13.2 µM |  | 69.1 µM | 
Cc1cc(Br)cc(C)c1NC(=O)C(=O)Nn1c(=S)[nH]c2ccccc2c1=O | > 100 µM | > 100 µM | > 100 µM | > 100 µM |  | > 100 µM | > 100 | > 100 | > 100 | > 100 |  |  |  |  |  |  |  |  |  | 
